Laboratory results published in patent publication US12096769B2, “Mechanism of urea/solid acid interaction under storage conditions and storage stable solid compositions comprising urea and acid” (ECOLAB USA INC., priority 2017, dated 2024).

Experiments:
Type in all cases: physicochemical
[1] = Swelling of tablets made with various acids as the acid filler, Example 2
[2] = pH in 17 grains per gallon (gpg) water, Example 5; conditions: Dose 625 ppm
From the text: The pH of the urea/citric acid complex was also compared to those of citric acid and monosodium citrate.

[3] = Tablet dimensional change at 40° C. and 90% humidity, Example 6; conditions: acid filler of the formulation
Description: A formulation using urea/citric acid complex as the acid filler were compared to those using urea or a mixture of urea and citric acid. In this Example, tablets were made according to the formulations in Table 8, then placed at 40° C. and 90% humidity. Their dimensional changes were measured during two-weeks period of time.

[4] = Block stability in a dispenser (swelling after 1 minute soak in water), Example 7; conditions: soaked in 1 inch of water at 43.3° C. (110° F.) for 1 minute; up to 18 hours
Description: Various blocks made from different formulations were screened for their block stability in a dispenser. During the experiments, the blocks were soaked in 1 inch of water at 43.3° C. (110° F.) for 1 minute, then measured for their swelling as a function of time.

SMILES | pH in 17 gpg Water [2] | Swelling of the tablet using the acid as the filler ([1]; 4 Week at 40° C.) | further results
NC(N)=O.O=C(O)CC(O)(CC(=O)O)C(=O)O [Urea-Citrate, urea-citric acid complex] | 4.8 |  | Swelling of the tablet using the acid as the filler ([1]; at 2 weeks, 40° C.): 0.5% at 2 weeks; Storage stability as measured by percentage swelling (in words) [3]: best storage stability; Swelling of the block after soak (in words) [4]: swelling is minimal
O=C(O)/C=C\C(=O)O [Maleic Acid] |  | Melted | 
CC(O)C(=O)O (centres unmarked) [Lactic Acid] |  | Weeping | State of the tablet using the acid as the filler ([1]; at 50° C.): melted
O=C(O)CC(=O)O [Malonic Acid] |  | Weeping | 
O=C(O)CC(O)(CC(=O)O)C(=O)O [Citric Acid] | 4.45 |  | 
O=C([O-])CC(O)(CC(=O)O)C(=O)O.[Na+] [Monosodium citrate] | 5.6 |  | 
O=C(O)CC(O)C(=O)O (centres unmarked) [Malic Acid] |  | ~5% | 
